Test results: patent US20110053900A1, “PROGESTERONE ANTAGONISTS SUCH AS CDB-4124 IN THE TREATMENT OF BREAST CANCER” (Repros Therapeutics inc, priority 2008, published 2011)

What was measured:
[1] = test system: rabbit progesterone receptor (rbPR) and glucocorticoid receptor (rbGR); assay: Receptor-binding assays, ratio of relative binding affinities rbPR/rbGR; conditions: RBA = EC50 of standard/EC50 of test compound x 100
Description: Certain antiprogestins were tested in receptor-binding assays for their ability to bind rabbit progesterone receptor (rbPR) and glucocorticoid receptor (rbGR). Briefly, cytosol containing PR or GR were prepared in TEGMD buffer (10 mM Tris, pH 7.2, 1.5 mM EDTA, 0.2 mM sodium molybdate, 10% glycerol, 1 mM DTT) from uterus or thymus, respectively, of estradiol-primed immature rabbits. For PR binding, the cytosol was incubated with 6 nM 1,2-[^3H]progesterone (50.0 Ci/mmole) and competitors were added at concentrations from 2 to 100 nM. For binding to GR, the cytosol was incubated with 6 nM 6,7-[^3H]-dexamethasone (40 Ci/mmol) and test compounds were added at concentrations from 20 to 100 nM. After overnight incubation at 4° C., bound and unbound [^3H] steroids were separated by addition of dextran-coated charcoal and centrifugation at 2100×g for 15 min at 4
C. Supernatants containing the [3H]-steroid receptor complexes were decanted into vials containing 4 ml Optifluor (Packard Instrument Co.), vortexed, equilibrated in a liquid scintillation counter for 30 minutes and then counted for 2 minutes. The ECso (Effective Concentration) for each standard curve and each of the compound curves was determined by entering the counting data into a four parameter sigmoidal computer program (RiaSmart® Immunoassay Data Reduction Program, Packard Instrument Co., Meriden, Conn.). Relative binding affinity (RBA) for each compound was calculated using the following equation: EC50 of standard/EC50 of test compound×100. The standards for the PR and GR assays were unlabeled progesterone and dexamethasone, respectively. The results of these experiments are summarized in Table 1, as a ratio of the relative binding affinities of each compound for the rbPR and rbGR receptors (rbPR/rbGR).

rabbit uterus = assay: Anti-McGinty and anti-Clauberg assays; assay type: in vivo; conditions: average of anti-McGinty and anti-Clauberg results relative to CDB-2914 = 1.00
Text: Also given in the Table are the relative biological activities of the same compounds in the rabbit uterus by the anti-McGinty and anti-Clauberg assays. Compound CDB-2914 (listed at the end of the Table) was used as the control or reference compound (rabbit Biological Activity=1.00) for these experiments because results of experiments using CDB-2914 have been published before (Hild-Petito et al., 1996; Passaro et al., 1997; Reel et al., 1998; Lamer et al., 2000). For the anti-McGinty test, immature female rabbits received a subcutaneous injection of 5 μg estradiol in 10% ethanol/sesame oil daily for 6 consecutive days. On day 7, animals underwent sterile abdominal surgery to ligate a 3-4 cm segment of both uterine horns. The test compound in appropriate solvent was injected intraluminally into the ligated segment of one uterine horn and vehicle alone into the other. A stimulating dose of progesterone (267 μg/day) was administered subcutaneously to each rabbit daily for the next three days to induce endometrial proliferation. All animals were sacrificed at day 10 for removal of the uterus where a segment central to the ligatures was removed and fixed in 10% neutral buffered formalin and submitted for histological processing. Five micron sections stained with hematoxylin and cosin were evaluated microscopically for the degree of endometrial glandular proliferation. The percent inhibition of endometrial proliferation for each rabbit was calculated and the mean of the group of five animals recorded. For the Anti-Clauberg test, immature female rabbits received a subcutaneous injection of 5 μg estradiol in 10% ethanol/sesame oil daily for 6 consecutive days. On day 7, animals received progesterone by subcutaneous injection (160 μg/day) and the experimental compound in appropriate vehicle orally or subcutaneously for five consecutive days. One group of rabbits received progesterone only. Twenty-four hours after the last dose, all animals were sacrificed for removal of the uterus which was cleaned of all fat and connective tissue, weighed to the nearest 0.2 mg and placed in 10% neutral buffered formalin for subsequent histological processing. Five micron sections stained with hematoxylin and eosin were evaluated microscopically for the degree of endometrial glandular proliferation. The percent inhibition of endometrial proliferation at each dose level of the test compound was derived by comparison with progesterone-stimulated animals alone. The data presented in Table 1 (rabbit Biol. Act.) reflects the average of the results obtained for each compound by the anti-McGinty and anti-Clauberg assays relative to CDB-2914.

Compound | rbPR/rbGR (ratio of the relative binding affinities for rbPR and rbGR) [1] | rabbit Biol. Act. (rabbit uterus)
CCC(=O)[C@@]1(OC(C)=O)CCC2C3CCC4=CC(=O)CCC4=C3C(c3ccc(N(C)C)cc3)C[C@@]21C (stereo partly drawn) [CDB-4030, 21-methyl-17α-acetoxy-11β-(4 N,N-dimethylaminophenyl)-19-norpregna-4,9-diene-3,20-dione] | 0.96 | 
CC(=O)O[C@]1(C(=O)CO)CCC2C3CCC4=CC(=O)CCC4=C3C(c3ccc(N(C)C)cc3)C[C@@]21C (stereo partly drawn) [CDB-4152, 21-hydroxy-17α-acetoxy-11β-(4 N,N-dimethylaminophenyl)-19-norpregna-4,9-diene-3,20-dione] | 0.82 | 
CC(=O)OCC(=O)[C@@]1(OC(C)=O)CCC2C3CCC4=CC(=NO)CCC4=C3C(c3ccc(N(C)C)cc3)C[C@@]21C (stereo partly drawn) [CDB-4206, 3-hydroxyamino-21-acetoxy-17α-acetoxy-11β-(4 N,N-dimethylaminophenyl)-19-norpregna-4,9-diene-3,20-dione] | 1.44 | 0.68
CC(=O)O[C@]1(C(=O)C[S+](C)[O-])CCC2C3CCC4=CC(=O)CCC4=C3C(c3ccc(N(C)C)cc3)C[C@@]21C (stereo partly drawn) [CDB-4101, 21-methoxythio-17α-acetoxy-11β-(4 N,N-dimethylaminophenyl)-19-norpregna-4,9-diene-3,20-dione] | 0.61 | 
21-methoxyacetyl-17α-acetoxy-11β-(4 N,N-dimethylaminophenyl)-19-norpregna-4,9-diene-3,20-dione [CDB-4362] | 4.74 | 1.25
COCC(=O)C1(OC(C)=O)CCC2C3CCC4=CC(=NO)CCC4=C3C(c3ccc(N(C)C)cc3)C[C@@]21C (stereo partly drawn) [CDB-4205, 3-hydroxyamino-21-methoxy-17α-acetoxy-11β-(4 N,N-dimethylaminophenyl)-19-norpregna-4,9-diene-3,20-dione] | 1.99 | 1.00
21-(Cyp*-hydroxy)-17α-acetoxy-11β-(4 N,N-dimethylaminophenyl)-19-norpregna-4,9-diene-3,20-dione [CDB-4125] | 1.19 | 1.55
CCOCC(=O)[C@@]1(OC(C)=O)CCC2C3CCC4=CC(=O)CCC4=C3C(c3ccc(N(C)C)cc3)C[C@@]21C (stereo partly drawn) [CDB-4167, 21-ethyloxy-17α-acetoxy-11β-(4 N,N-dimethylaminophenyl)-19-norpregna-4,9-diene-3,20-dione] | 1.69 | 
CC(=O)O[C@]1(C(=O)CSC#N)CCC2C3CCC4=CC(=O)CCC4=C3C(c3ccc(N(C)C)cc3)C[C@@]21C (stereo partly drawn) [CDB-4352, 21-cyanothio-17α-acetoxy-11β-(4 N,N-dimethylaminophenyl)-19 norpregna-4,9-diene-3,20-dione] | 4.21 | 
COCC(=O)[C@@]1(OC(C)=O)CCC2C3CCC4=C(C(=O)c5ccccc5)C(=O)CCC4=C3C(c3ccc(N(C)C)cc3)C[C@@]21C (stereo partly drawn) [CDB-4239, 4-benzoin-21-methoxy-17α-acetoxy-11β-(4 N,N-dimethylaminophenyl)-19-norpregna-4,9-diene-3,20-dione] | 14.80 | 
CC(=O)O[C@]1(C2COC(C)(C)O2)CCC2C3CCC4=CC(=O)CCC4=C3C(c3ccc(N(C)C)cc3)C[C@@]21C (stereo partly drawn) [CDB-4110, 21-acetonide-17α-acetoxy-11β-(4 N,N-dimethylaminophenyl)-19-norpregna-4,9-diene-3,20-dione] | 0.70 | 
21-BMD-17α-acetoxy-11β-(4 N,N-dimethylaminophenyl)-19-norpregna-4,9-diene-3,20-dione [CDB-4111] | 1.30 | 0.36
C=COCC(=O)[C@@]1(OC(C)=O)CCC2C3CCC4=CC(=O)CCC4=C3C(c3ccc(N(C)C)cc3)C[C@@]21C (stereo partly drawn) [CDB-4361, 21-vinyl ether-17α-acetoxy-11β-(4 N,N-dimethylaminophenyl)-19-norpregna-4,9-diene-3,20-dione] | 7.20 | 
4-benzoin-21-acetylthio-17α-acetoxy-11β-(4 N,N-dimethylaminophenyl)-19-norpregna-4,9-diene-3,20-dione [CDB-4119] | 2.60 | 0.10
CC(=O)O[C@]1(C(=O)CBr)CCC2C3CCC4=CC(=O)CCC4=C3C(c3ccc(N(C)C)cc3)C[C@@]21C (stereo partly drawn) [CDB-4031, 21-bromine-17α-acetoxy-11β-(4 N,N-dimethylaminophenyl)-19-norpregna-4,9-diene-3,20-dione] | 0.69 | 
CCOCC(=O)[C@@]1(OC(C)=O)CCC2C3CCC4=CC(=NO)CCC4=C3C(c3ccc(N(C)C)cc3)C[C@@]21C (stereo partly shown) [CDB-4226] | 1.51 | 0.54
CC(=O)O[C@]1(C(=O)CF)CCC2C3CCC4=CC(=O)CCC4=C3C(c3ccc(N(C)C)cc3)C[C@@]21C (stereo partly drawn) [CDB-4058, 21-flourine-17α-acetoxy-11β-(4 N,N-dimethylaminophenyl)-19-norpregna-4,9-diene-3,20-dione] | 1.08 | 
CC(=O)O[C@]1(C(=O)COC(=O)CN)CCC2C3CCC4=CC(=O)CCC4=C3C(c3ccc(N(C)C)cc3)C[C@@]21C (stereo partly drawn) [CDB-4306, 21-glycinate-17α-acetoxy-11β-(4 N,N-dimethylaminophenyl)-19-norpregna-4,9-diene-3,20-dione] | 5.90 | 0.95
CCC(=O)OCC(=O)[C@@]1(OC(C)=O)CCC2C3CCC4=CC(=O)CCC4=C3C(c3ccc(N(C)C)cc3)C[C@@]21C (stereo partly drawn) [CDB-4247, 21-propionyloxy-17α-acetoxy-11β-(4 N,N-dimethylaminophenyl)-19-norpregna-4,9-diene-3,20-dione] | 2.06 | 
CSCC(=O)[C@@]1(OC(C)=O)CCC2C3CCC4=CC(=O)CCC4=C3C(c3ccc(N(C)C)cc3)C[C@@]21C (stereo partly drawn) [CDB-4223, 21-methylthio-17α-acetoxy-11β-(4 N,N-dimethylaminophenyl)-19-norpregna-4,9-diene-3,20-dione] | 1.17 | 
